From US8722364B2, “Method for increasing microbial catalase production” (Jiangnan University, priority 2011, dated 2014)

What was measured:
[1] = system: catalase; assay: Storage stability of unpurified fermentation broth (remaining extracellular catalase activity); set-up: species or system Bacillus sp. WSHDZ-01
Method: (§1) Catalase activity was measured using the method described by Aebi (Aebi HE. Catalase in vitro. Method Enzymol 1984; 105:121-6). Total reaction volume is 3 ml. 0.1 ml enzyme solution was added to 2.9 ml KH2PO4—K2HPO4 buffer (pH 7.0, 10 mM KH2PO4/50 mM K2HPO4, 0.45 g/L H2O2). Decomposition rate of H2O2 was measured at 240 nm using a UV-Vis spectrophotometer. One unit of catalase activity is defined as the amount of enzyme that decomposes 1 μmol H2O2 per min at pH 7.0, 25° C.
The culturing of Bacillus sp. WSHDZ-01 was performed as described under control procedure with one modification, that is, 5 g/L sodium hexametaphosphate was added at 36 hours of fermentation.
After fermentation, unpurified fermentation broth was stored at 25° C. for 12 hours. […] The broth storage stability was improved by 28.3% under the procedure with sodium hexametaphosphate.

[2] = system: Bacillus sp. WSHDZ-01; assay: Fermentation of Bacillus sp. WSHDZ-01 with sodium hexametaphosphate added; extracellular catalase activity of the broth by catalase assay (Aebi); type: cell-based
Method: (§2) Fermentation Culture: the fermentation process was performed in a 3 liter (L) stirred fermenter (KFT-3L, Korea) with a working volume of 1.8 L. Above 12-h-old basic flask culture was added at a concentration of 5.0% (v/v) to 1.8 L fermentation medium, and incubated under a stepwise temperature control, in which the temperature was maintained at 37° C. for the first 10 hours, at 35° C. during 10-20 hours, and at 32° C. after 20 hours. The aeration rate was 1.0 (v/v/m) (volume of air per volume of culture per minute). The shaking speed was 400 rpm. The total fermentation period was 48 to 53 hours. Proteinase inhibitors can be added during this fermentation process as described below.
as §1
Bacillus sp. WSHDZ-01 with accession number CCTCC NO. M206062 was used to produce catalase. Bacillus sp. WSHDZ-01 grown on a slant culture was inoculated into 50 ml of liquid seed medium in a 250 ml culture flask and cultured at 37° C., 200 rpm for 12-14 hours. 6% above liquid seed culture (v/v) was added to 80 ml basic fermentation culture in a 500 ml culture flask, and incubate at 37° C., 200 rpm, for 36-40 hours.
as §2, with “the” for “Fermentation Culture: the”, “L” for “liter (L)”, “The” for “Above”, “hours.” for “hours. Proteinase inhibitors can be added during this fermentation process as described below.”

[3] = 1 g/L added at 30 hours of fermentation
[4] = 3 g/L added at 36 hours of fermentation
[5] = 5 g/L added at 36 hours of fermentation
[6] = 7 g/L added at 36 hours of fermentation
[7] = 10 g/L added at 40 hours of fermentation

O=P1([O-])OP(=O)([O-])OP(=O)([O-])OP(=O)([O-])OP(=O)([O-])OP(=O)([O-])O1.[Na+].[Na+].[Na+].[Na+].[Na+].[Na+] [sodium hexametaphosphate]
percentage of remaining extracellular catalase activity of the stored fermentation broth ([1]; 5 g/L added at 36 hours of fermentation, unpurified broth stored at 25° C. for 12 hours): 84.4%
broth storage stability improved ([1]; 5 g/L added at 36 hours, stored at 25° C. for 12 hours, versus control culture procedure (56.1%)): 28.3%
Extracellular catalase activity of the fermentation broth [2, 3]: 15700 U/mL
increase of enzyme activity from that of the control procedure [2, 3]: 16.3%
Extracellular catalase activity of the fermentation broth [2, 4]: 18600 U/mL
increase of enzyme activity from that of the control procedure [2, 4]: 37.7%
Extracellular catalase activity of the fermentation broth [2, 5]: 19200 U/mL
increase of enzyme activity from that of the control procedure [2, 5]: 42.2%
Extracellular catalase activity of the fermentation broth [2, 6]: 19700 U/mL
increase of enzyme activity from that of the control procedure [2, 6]: 45.9%
Extracellular catalase activity of the fermentation broth [2, 7]: 16900 U/mL
increase of enzyme activity from that of the control procedure [2, 7]: 25.2%
